Our source for the IC50 values is patent US20220267288A1, “CARDIAC THERAPEUTIC” (priority 2019, published 2022).

The subject of the experiment is H9c2 cells. The experiment is described as follows: Mitochondrial membrane potential (Δψm) dissipation, TMRM dye. The settings on record: Rattus norvegicus; H9c2 cells, TMRM dye. Format: cell-based. The method, then: H9c2 cell line was purchased from American Tissue Type Collection (ATCC) (Manassas, Va.). The cells were cultured in low-glucose DMEM growth media (Cat No: 31600, Thermo Fisher Scientific, Waltham, Mass.) supplemented with 1.5 g/L sodium bicarbonate, 25 mM HEPES, 10% fetal bovine serum (FBS) (GE Healthcare, Singapore), 100 units/mL penicillin, 100 μg/mL streptomycin and 250 ng/mL amphotericin B in 75-cm^2 tissue-culture flasks at 37° C. in a humidified atmosphere of 5% CO2. Cells were fed every 2-3 days and sub-cultured once 70-80% confluency was achieved to prevent the loss of differentiation potential. For differentiation, H9c2 cells were seeded at a density of 100,000 cells/well in 12-well plates. The cells were maintained for 1 day in low-glucose high-serum growth media to allow for cell attachment. Subsequently, cells were differentiated using 1 μM ATRA.
Dissipation of Δψm by each test compound was measured using mitochondrial permeable dye, tetramethylrhodamine methyl ester perchlorate (TMRM) (Thermo Fisher Scientific, Waltham, Mass.). […] The media was aspirated, the cells were washed with PBS and fluorescence was measured at 557 nm excitation and 570 nm emission wavelengths. […] The media was aspirated and then the cells were treated with dronedarone and the dissipation of Δψm by AADs was measured as described.

`CCCCc1oc2ccc(NS(C)(=O)=O)cc2c1C(=O)c1ccc(OCCCN(CCCC)CCCC)cc1.Cl` [Dronedarone] had an IC50 of 500 nM.
